# Assay results from US6946558B2 (CJ Corp., priority 2001, dated 2005).
# Experiments:
# [1] = target: T1, cyclooxygenase-2 (Mus musculus, UniProt Q05769); assay: Cyclooxygenase-2 inhibition in Raw 264.7 cells (interferon γ/LPS induced, PGE2 EIA); format: cell-based; conditions: for Inhibitory effects of cyclooxygenase (COX): COX-2 (Raw 264.7): Raw 264.7 cells; for selectivity of cyclooxygenase-2 compared with standard substance: COX-2 versus COX-1, compared with SC-58635
# T1 construct: endogenous in cells; host or cells: Raw 264.7 (Korean cell line bank), induced with interferon γ and LPS
# T1 sequence (Q05769 18-604): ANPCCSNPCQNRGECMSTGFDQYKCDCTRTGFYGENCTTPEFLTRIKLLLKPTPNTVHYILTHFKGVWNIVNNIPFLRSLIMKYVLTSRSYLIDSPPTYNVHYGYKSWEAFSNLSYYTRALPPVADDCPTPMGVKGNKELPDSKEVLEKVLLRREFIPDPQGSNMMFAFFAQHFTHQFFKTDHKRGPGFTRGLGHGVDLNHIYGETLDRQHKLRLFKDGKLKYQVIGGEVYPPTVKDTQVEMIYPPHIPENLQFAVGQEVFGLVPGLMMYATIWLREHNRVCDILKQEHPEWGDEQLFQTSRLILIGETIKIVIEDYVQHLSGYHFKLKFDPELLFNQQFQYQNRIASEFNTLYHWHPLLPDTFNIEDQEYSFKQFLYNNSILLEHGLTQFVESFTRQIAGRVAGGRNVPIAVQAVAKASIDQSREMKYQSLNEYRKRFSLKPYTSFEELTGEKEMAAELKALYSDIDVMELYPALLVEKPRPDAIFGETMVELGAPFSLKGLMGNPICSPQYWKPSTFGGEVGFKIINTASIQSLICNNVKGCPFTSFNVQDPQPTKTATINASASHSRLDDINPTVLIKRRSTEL
# Method: (§1) In order to investigate pharmacologically the selective inhibition activity against cyclooxygenase-2 enzyme, the inhibitive effects against cyclooxygenase-1 and cyclooxygenase-2 were measured by two methods as follows.
# And then, each samples were replaced with new media and cultured for 30 minutes. In addition, the samples were treated with 100 units/ml of interferon γ and 100 ng/ml of lipopolysaccharide (LPS), and cultured for 18 hours. Then, the media was transferred to other tubes and the PGE 2 was quantitated by using EIA kit from Cayman Chemicals.
# [2] = target: T2, cyclooxygenase-1 (Homo sapiens, UniProt P23219); assay: Cyclooxygenase-1 inhibition in U-937 cells (PGE2 quantitation after arachidonic acid); format: cell-based; conditions: for Inhibitory effects of cyclooxygenase (COX): COX-1 (U-937): U-937 cells; for inhibition effect against cyclooxygenase-1 compared with standard substance SC-58635: in words, compared with SC-58635
# T2 construct: endogenous in cells; host or cells: U-937 (Korean cell line bank)
# T2 sequence (P23219 24-599): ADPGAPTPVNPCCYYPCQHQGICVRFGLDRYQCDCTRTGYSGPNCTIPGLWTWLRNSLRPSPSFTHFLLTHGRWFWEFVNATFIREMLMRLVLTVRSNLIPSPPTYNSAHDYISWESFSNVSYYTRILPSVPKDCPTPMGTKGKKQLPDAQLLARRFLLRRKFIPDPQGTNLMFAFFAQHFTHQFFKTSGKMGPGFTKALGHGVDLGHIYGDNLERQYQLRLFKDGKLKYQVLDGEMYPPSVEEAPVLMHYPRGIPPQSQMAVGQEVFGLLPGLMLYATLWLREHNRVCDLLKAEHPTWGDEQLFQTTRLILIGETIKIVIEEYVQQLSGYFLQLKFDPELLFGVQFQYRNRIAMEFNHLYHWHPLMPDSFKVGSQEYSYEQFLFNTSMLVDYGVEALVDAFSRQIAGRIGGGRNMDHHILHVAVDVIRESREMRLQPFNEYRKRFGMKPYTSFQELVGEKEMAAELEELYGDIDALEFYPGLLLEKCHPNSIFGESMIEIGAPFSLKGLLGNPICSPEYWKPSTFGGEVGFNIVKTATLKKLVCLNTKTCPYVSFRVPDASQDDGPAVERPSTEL
# Method: as §1
# Then, the pellet was diluted with 1×HBSS (Hank's balanced salt solutin) at the concentration of 1×10^6 cells/ml, and 1 ml of them was transferred into each of 12-well plates, and then dissolved with DMSO. 5 μl of the diluted sample solution and 5 μl of DMSO vehicle were added therein and mixed, and the mixture was cultured at 37° C. in CO2 incubator for 15 minutes. Arachidonic acid as a substrate was dissolved in ethanol to prepare a stock solution with a concentration of 10 mM, followed by diluting with 1×HBSS to prepare the solution of 1 mM. 10 μl of 1 mM Arachidonic acid solution was added to each of the treated wells and the mixture was cultured at 37° C. in CO2 incubator for 30 minutes. The cell solution of each well was collected in the centrifuge tube and centrifuged at 4° C., for 5 minutes at 10,000 rpm. As PGE2 existed in the supernatant separated from collected cell, the concentration of PGE2 was quantitated by using monoclonal kit from Cayman Chemicals, and the concentration of samples and vehicle were compared to estimate the inhibition ratio (%) of each compound against cyclooxygenase-1. Ultimately, the inhibition effect against the cyclooxygenase-1 enzyme was obtained from the result.
SMILES,Inhibitory effects of cyclooxygenase (COX): COX-2 (Raw 264.7) ([1]; 30 nM),Inhibitory effects of cyclooxygenase (COX): COX-2 (Raw 264.7) ([1]; 100 nM),Inhibitory effects of cyclooxygenase (COX): COX-2 (Raw 264.7) ([1]; 300 nM),selectivity of cyclooxygenase-2 compared with standard substance ([1]; in words),"inhibition effect against cyclooxygenase-2 compared with standard substance SC-58635 ([1]; in words, low concentration, same condition as SC-58635)",Inhibitory effects of cyclooxygenase (COX): COX-1 (U-937) ([2]; 1 μM),Inhibitory effects of cyclooxygenase (COX): COX-1 (U-937) ([2]; 3 μM),Inhibitory effects of cyclooxygenase (COX): COX-1 (U-937) ([2]; 10 μM),inhibition effect against cyclooxygenase-1 compared with standard substance SC-58635 [2]
"CS(=O)(=O)c1ccc(-c2ncccc2OC2CCCC2)cn1 [Example 2, 3-cyclopentyloxy-6′-methylsulfonyl-2,3′-bipyridinyl]",40.3 % inhibition,53.2 % inhibition,63.5 % inhibition,better than any other standard substances,more excellent in low concentration than standard substance,12.7 % inhibition,14.3 % inhibition,21.0 % inhibition,much lower level than standard substance
"CS(=O)(=O)c1ccc(-c2ncccc2OC2CCCCC2)cn1 [Example 3, 3-cyclohexyloxy-6′-methylsulfonyl-2,3′-bipyridinyl]",23.5 % inhibition,30.2 % inhibition,42.2 % inhibition,–,–,11.2 % inhibition,12.5 % inhibition,14.0 % inhibition,–
"C[C@H](CO)COc1cccnc1-c1ccc(S(C)(=O)=O)nc1 [Example 5, (R)-3-(6′-methylsulfonyl-2,3′-bipyridine-3-yloxy)-2-methyl-1-propanol]",10.3 % inhibition,11.01 % inhibition,20.1 % inhibition,hardly different,–,13.5 % inhibition,16.2 % inhibition,18.9 % inhibition,much lower level than a comparative substance
"C[C@@H](CO)COc1cccnc1-c1ccc(S(C)(=O)=O)nc1 [Example 6, (S)-3-(6′-methylsulfonyl-2,3′-bipyridine-3-yloxy)-2-methyl-1-propanol]",9.3 % inhibition,12.0 % inhibition,21.0 % inhibition,hardly different,–,14.3 % inhibition,17.2 % inhibition,24.5 % inhibition,much lower level than a comparative substance
"CC(C)=CCOc1cccnc1-c1ccc(S(C)(=O)=O)nc1 [Example 4, 6′-methylsulfonyl-3-(3-methyl-2-butenyloxy)-2,3′-bipyridinyl]",15.8 % inhibition,28.5 % inhibition,40.8 % inhibition,–,–,12.2 % inhibition,15.6 % inhibition,17.0 % inhibition,–
"CC(C)Oc1cccnc1-c1ccc(S(C)(=O)=O)nc1 [Example 1, 3-isopropyloxy-6′-methylsulfonyl-2,3′-bipyridinyl]",10.2 % inhibition,14.2 % inhibition,15.2 % inhibition,hardly different,–,0.2 % inhibition,7.5 % inhibition,11.0 % inhibition,much lower level than a comparative substance
